Legend:
[1] = tested on: Class-lla HDAC; test: Cell-based deacetylase assay in HT-29 cells, class-IIa selective substrate Boc-Lys-TFA; conditions: whole-cell assay, 100 μM Boc-Lys-TFA (class-IIa selective substrate), 3 h at 37° C.
Procedure: Cell-based deacetylase assay. […] HT-29 cells (obtained from ATCC) with the addition of either 100 μM Boc-Lys-TFA (class-IIa selective substrate) or 200 μM Boc-Lys-Ac (class-I/IIb selective substrate) were plated into 96 well plates at 200,000 cells/well in 45 uL cellular assay buffer (RPMI without phenol red, 0.1% Fetal Bovine Serum) and were incubated for 3 h at 37° C. The deacetylation achieved by the addition of 50 uL HDAC developer solution (2.5 mg/ml trypsin in DMEM without Fetal Bovine Serum and 10% tween 80) for a further 1 h to sensitize the substrate and to lyse the cells. Fluorescent counts were read with microplate reader at an excitation wavelength of 360 nm and detection of emitted light of 460 nm.

[2] = tested on: Class-I HDAC; test: Cell-based deacetylase assay in HT-29 cells, class-I/IIb selective substrate Boc-Lys-Ac; conditions: whole-cell assay, 200 μM Boc-Lys-Ac (class-I/IIb selective substrate), 3 h at 37° C.
Procedure: Cell-based deacetylase assay. The cell-based assay was conducted similar to the previous work (Lobera M 2013; Luckhurst C A 2019) Briefly, compounds were diluted in 5 uL DMSO (11-point concentration curve, 5% final DMSO) and were added to 96 wells with positive (5 μM Trichostatin A (TSA)) and negative control (5 uL DMSO) wells. HT-29 cells (obtained from ATCC) with the addition of either 100 μM Boc-Lys-TFA (class-IIa selective substrate) or 200 μM Boc-Lys-Ac (class-I/IIb selective substrate) were plated into 96 well plates at 200,000 cells/well in 45 uL cellular assay buffer (RPMI without phenol red, 0.1% Fetal Bovine Serum) and were incubated for 3 h at 37° C. The deacetylation achieved by the addition of 50 uL HDAC developer solution (2.5 mg/ml trypsin in DMEM without Fetal Bovine Serum and 10% tween 80) for a further 1 h to sensitize the substrate and to lyse the cells. Fluorescent counts were read with microplate reader at an excitation wavelength of 360 nm and detection of emitted light of 460 nm.

[3] = tested on: class-lla HDACs; test: In vivo microPET imaging of healthy rats (biodistribution, self-blocking with cold TMP195); design: species or system Sprague Dawley rats; conditions: for biodistribution / uptake in brain regions: rat brain PET
Procedure: Sprague Dawley rats (200-250 g, N=3,) were anesthetized with 3% isoflurane in oxygen and maintained at 2% isoflurane in oxygen throughout the imaging studies. Anesthetized rat was placed in the uPET (Siemens, Knoxville, TN) with the skull positioned in the center of the field of view. The tracer (500-700 μCi/animal) was administered intravenously into each Rat (n=3 per group) in a total volume 0.5-1.0 ml solution. Dynamic PET images were obtained over 60 minutes. Images were reconstructed with attenuation correction using an ordered subset expectation maximization (OSEM2D) algorithm with 16 subsets and 4 iterations.
Dynamic PET images were analyzed with Inveon Research Workplace 4.0 (Siemens, Knoxville, TN) and AMIDE software using manual segmentation of regions of interest (ROI), were drawn over ROI on the decay-corrected coronal images. The radioactivity accumulation (tracer uptake) within the ROI were obtained as percentage of the injected dose (ID) per gram of tissue (% ID/g). The time-activity curve (TAC) was generated from the region of interest (ROI) by plotting the radioactivity/cc vs time.
(§1) Anesthetized Sprague Dawley rats (200-250 g, N=6) were placed in the Inveon uPET (Siemens, Knoxville, TN) in the supine position with the skull positioned in the center of the field of view. [^18F]-NT160 was formulated in ethanol:polysorbate 80:saline (10:10:80%) and it was stable in this formulation at 37° C. at least for 4 hours. [^18F]-NT160 (18.5-25.9 MBq/animal) was administered via the tail-vein injection in a total volume 0.5-1.0 ml. Dynamic PET images were obtained over 60 minutes followed by CT imaging (15 min scan). Images were reconstructed with attenuation correction using an ordered subset expectation maximization (OSEM2D) algorithm with 16 subsets and 4 iterations. PET image analysis was performed using the AMIDE software by using manual segmentation of regions of interest (ROI), including: whole brain, cortex, hippocampus, thalamus, cerebellum, and brain stem. Rat Brain Atlas was used for alignment and identification of specific anatomical markers of the brain. The time-activity curve (TAC) was generated from the region of interest (ROI) by plotting the radioactivity/cc vs time. Levels of accumulation of the radiotracer in tissues were expressed as standard uptake values (SUV) that were calculated for the regions of interest (ROI) using the AMIDE software. The SUV is defined as the ratio of the tissue radioactivity concentration C (e.g. expressed as Bq/g tissue) at given time point post injection T, and the injected dose (e.g. in Bq, decay-corrected to the same time T), and normalized by the body weight in grams. GraphPad Prism (Graph Pad Software La Jolla, CA) was used for image data analysis. [^18F]-NT2-160 was also prepared by the same or similar procedure.

[4] = Stability of the tracer in its injection formulation; assay type: physicochemical; conditions: ethanol:polysorbate 80:saline (10:10:80%), 37° C.
Procedure: as §1, with “PET image analysis was performed using the AMIDE software by using manual segmentation of regions of interest (ROI), including: whole brain, cortex, hippocampus, thalamus, cerebellum, and brain stem. Rat Brain Atlas was used for alignment and identification of specific anatomical markers of the brain.” left out, “GraphPad Prism (Graph Pad Software La Jolla, CA) was used for image data analysis. [^18F]-NT2-160 was also prepared by the same or similar procedure.” left out

[5] = Partition coefficient, octanol/PBS shake flask method; assay type: physicochemical; conditions: phosphate buffer pH 7.4
Procedure: The log P was determined by partitioning the tracer between octanol and phosphate buffer at pH 7.4 and measuring the concentration of the tracer in each layer. The radioactivity of each layer is counted using gamma-counter. The partition coefficient (P) is calculated as [radioactivity (cpm/ml) in 1-octanol)]/[(radioactivity (cpm/ml) in phosphate buffer pH 7.4].

[6] = rat, co-administered TMP195 2 mg/kg

SMILES | IC50 [1] | IC50 [2] | other results
CC(C)(NCc1ccccc1)C(=O)CNC(=O)c1ccc(-c2noc(C(F)(F)F)n2)cc1 [NT2-44] | 0.768 ± 0.19 µM | > 15 µM | 
C[C@@H](NC(=O)c1ccc(-c2noc(C(F)(F)F)n2)cc1)C(=O)NCc1ccccc1 [NT2-67] | 0.953 µM | > 15 µM | 
O=C(NC1CCN(c2ccccc2)C1)c1ccc(-c2noc(C(F)(F)F)n2)cc1 (stereo not shown) [NT2-174] | > 20 µM | > 50 µM | 
O=C(NC1CCN(Cc2ccc(F)cc2)C1)c1ccc(-c2noc(C(F)(F)F)n2)cc1 (stereo not shown) [NT3-40] | 0.142 µM | > 20 µM | 
O=C(NC1CCN(Cc2ccccc2F)C1)c1ccc(-c2noc(C(F)(F)F)n2)cc1F (stereo not shown) [NT3-77A] | 0.179 µM | > 10 µM | 
O=C(NC1CCN(Cc2cccc(F)c2)C1)c1ccc(-c2noc(C(F)(F)F)n2)cc1F (stereo not shown) [NT3-77B] | 0.195 µM | > 10 µM | 
CCN1CCC(NC(=O)c2ccc(-c3noc(C(F)(F)F)n3)cc2)C1 (stereo not shown) [NT3-83] | 0.091 µM | > 9 µM | 
C[C@H](CN(C)Cc1ccccc1)NC(=O)c1ccc(-c2noc(C(F)(F)Cl)n2)cc1 [NT3-89B] | > 2 µM | > 2 µM | 
O=C(NC1CCN(CCc2ccccc2F)C1)c1ccc(-c2noc(C(F)(F)F)n2)cc1 (stereo not shown) [NT3-102C] | > 10 µM | > 50 µM | 
O=C(NC1CCN(CCc2ccccc2)C1)c1ccc(-c2noc(C(F)(F)F)n2)cc1 (stereo not shown) [NT3-106C] | > 10 µM | > 50 µM | 
CN(Cc1ccccc1)C(=O)C(C)(C)CNC(=O)c1cccc(-c2noc(C(F)(F)F)n2)c1 [NT3-118] | > 50 µM | > 50 µM | 
CN(Cc1ccccc1)C(=O)C(C)(C)CNC(=O)c1ccc(-c2noc(C(F)(F)F)n2)cc1 [NT3-119] | 0.933 ± 0.26 µM | > 15 µM | 
O=C(NC1CCN(CCF)C1)c1ccc(-c2noc(C(F)(F)F)n2)cc1 (stereo not shown) [NT3-123] | > 10 µM | > 50 µM | 
O=C(NC1CCN(Cc2ccccc2I)C1)c1ccc(-c2noc(C(F)(F)F)n2)cc1 (stereo not shown) [NT3-127B] | 1 µM | > 50 µM | 
O=C(NC1CCN(Cc2ccccc2F)C1)c1ccc(-c2noc(C(F)(F)F)n2)cc1 (stereo not shown) [NT3-132B] | 0.3 µM | > 50 µM | 
CC(C)(CNC(=O)c1ccc(-c2noc(C(F)(F)F)n2)cc1)c1coc(-c2ccccc2)n1 [NT-134] | > 5 µM | > 15 µM | 
CN(Cc1ccccc1)C(=O)CCNC(=O)c1ccc(-c2noc(C(F)(F)F)n2)cc1 [NT-174] | 0.905 ± 0.22 µM | > 15 µM | 
O=C(NC1CCN(Cc2ccccc2)C1)c1ccc(-c2noc(C(F)(F)[18F])n2)cc1 (stereo not shown) [[^18F]-NT2-160] |  |  | biodistribution / uptake in brain regions [3]: heterogenous
C[C@H](CN(C)Cc1ccccc1)NC(=O)c1ccc(-c2noc(C(F)(F)[18F])n2)cc1 [[^18F]-NT160] |  |  | stable in formulation [4]: ≥ 4 h
CC(C)(CNC(=O)c1cccc(-c2noc(C(F)(F)[18F])n2)c1)c1coc(-c2ccccc2)n1 [^18F-NT57] |  |  | tracer uptake in the harderian gland ([3]; rat): neither specific nor unique; biodistribution / uptake in brain regions [3]: heterogeneous; uptake in the wrist ([3]; rat, baseline and blocking with TMP195): intense and blockable; uptake in the brown fat adipose tissues (BATs) ([3]; rat, cervical and interscapular BAT, 60 min): intense and increased uptake; brain uptake with cold dose of TMP195 vs baseline (self-blocking) [3, 6]: reduced; tracer uptake in BATs with cold dose of TMP195 (blocking) [3, 6]: reduced; accumulation in the liver ([3]; rat, dynamic PET over 60 min): accumulated heavily; clearance from most normal tissues (heart, brain, muscle) ([3]; rat, dynamic PET over 60 min): rapid clearance; peak uptake in the brain ([3]; rat, intravenous tracer, dynamic PET over 60 min): ~1 % ID/g; tracer uptake in the muscle ([3]; rat, not affected by blocking): low and nonspecific; logD [5]: > 6

Continued, in another order:

IC50 [1] | IC50 [2] | SMILES | other results
0.233 ± 0.11 µM | > 15 µM | COC[C@@H](NC(=O)c1ccc(-c2noc(C(F)(F)F)n2)cc1)C(=O)NCc1ccc(F)cc1 [NT2-156] | 
 | > 20 µM | O=C(NC1CCN(Cc2ccccc2)C1)c1ccc(-c2noc(C(F)(F)F)n2)cc1 (stereo not shown) [NT2-160] | 
> 10 µM | > 50 µM | O=C(NC1CCCN(Cc2ccccc2)C1)c1ccc(-c2noc(C(F)(F)F)n2)cc1 (stereo not shown) [NT2-190] | 
 | > 50 µM | CC(CN(C)Cc1ccccc1)NC(=O)c1ccc(-c2noc(C(F)(F)F)n2)cc1 (stereo not shown) [NT2-191] | 
0.059 ± 0.016 µM | > 15 µM | C[C@H](CN(C)Cc1ccc(F)cc1)NC(=O)c1ccc(-c2noc(C(F)(F)F)n2)cc1 [NT3-11D] | 
0.005 µM | > 25 µM | C[C@@H](CN1CC[C@H](c2ccccc2)C1)NC(=O)c1ccc(-c2noc(C(F)(F)F)n2)cc1 [NT3-16D] | 
0.295 µM | > 50 µM | O=C(NC1CCN(Cc2ccc(I)cc2)C1)c1ccc(-c2noc(C(F)(F)F)n2)cc1 (stereo not shown) [NT3-39] | 
> 1 µM | > 50 µM | C[C@H](NC(=O)c1ccc(-c2noc(C(F)(F)F)n2)cc1)C(=O)N1CC[C@H](c2ccccc2)C1 [NT3-52B] | 
0.072 µM | > 3 µM | CN1CCC(NC(=O)c2ccc(-c3noc(C(F)(F)F)n3)cc2F)C1 (stereo not shown) [NT3-75] | 
0.032 µM | > 5 µM | C[C@H](CN(C)Cc1ccccc1)NC(=O)c1ccc(-c2noc(C(F)(F)F)n2)cc1F [NT3-76] | 
0.173 µM | > 10 µM | O=C(NC1CCN(Cc2ccc(F)cc2)C1)c1ccc(-c2noc(C(F)(F)F)n2)cc1F (stereo not shown) [NT3-77C] | 
0.152 µM | > 10 µM | O=C(NC1CCN(Cc2ccccc2)C1)c1ccc(-c2noc(C(F)(F)F)n2)cc1F (stereo not shown) [NT3-77] | 
0.137 µM | > 5 µM | CCN1CCC(NC(=O)c2ccc(-c3noc(C(F)(F)F)n3)cc2F)C1 (stereo not shown) [NT3-81] | 
> 20 µM | > 50 µM | CCN1CC[C@@H](NC(=O)c2ccc(-c3noc(C(F)(F)Cl)n3)cc2)C1 [NT3-92] | 
> 50 µM | > 50 µM | CN(Cc1ccccc1)C(=O)CCNC(=O)c1cccc(-c2noc(C(F)(F)F)n2)c1 [NT-175] | 
0.537 ± 0.15 µM | > 15 µM | COC[C@@H](NC(=O)c1ccc(-c2noc(C(F)(F)F)n2)cc1)C(=O)NCc1ccccc1 [NT-176] | 
1.71 ± 0.33 µM | > 15 µM | COC[C@@H](NC(=O)c1ccc(-c2noc(C(F)(F)F)n2)nc1)C(=O)NCc1ccccc1 [NT-192] | 

Reference: patent publication US20240327361A1, “RADIOLABELED COMPOSITIONS AND METHODS OF USE THEREOF” (The Research Foundation for the State University of New York, priority 2021, published 2024)
